Results on 3 compounds are retold here after patent US5710012A, “Salt of 6-carboxy-3-methylbenzothiazolone hydrazone hydrate in colorimetric determination of hydrogen peroxide” (ActiMed Laboratories, Inc., priority 1994, dated 1998).

The nature of data set [1]: Relative Molar Extinction Coefficients (absorbance of dye formed with N-ethylanilinopropanamine, POD and H2O2). The class given is physicochemical. Particulars: pH 6.5 phosphate buffer, same molar concentration, coupled with N-ethylanilinopropanamine hydrochloride. The protocol: The relative absorbance of MBTH and sodium carboxy MBTH, an illustrative soluble hydrazone compound, was measured and compared. Since each compound was measured at the same molar concentration, the molar extinction was proportional to the […].
Each sample contained the following:
1 mL phosphate buffer, 0.035M, pH 6.5
10 μL R-MBTH solution, 10 mM, where R=H or COONa
100 μL N-ethylanilinopropanamine hydrochloride, 10 mM
10 μL POD solution, ~120 IU/mL
A 1-mL aliquot of each solution was transferred to a cuvette and diluted with an addition 2 mL of phosphate buffer solution.

Data set [2] can be described thus: Solubility Comparison in pH 7 buffer. The format is physicochemical. To be noted: for solubility: 0.1m phosphate buffer, aqueous buffer, pH 7 buffer (phosphate, 0.1M); for Water added: to dissolve 100 mg completely, pH 7 buffer (phosphate, 0.1M) instead of water. As to the method:
(§1) The solubility of MBTH.HCl was compared with that of NaCMBTH. One hundred mg samples of each of MBTH.HCl (Aldrich) and NaCMBTH were placed into test tubes. Water was added in 50 μ-L aliquots until the sample completely dissolved.
An identical experiment was performed using pH 7 buffer (phosphate, 0.1M) instead of water.

Data set [3] is described as follows: Heat Stability on coated polyester fabric at 120° C. The class given is physicochemical. Particulars: for Density: 120° C., absorbance at 310 nm. As to the method: In order to evaluate the heat stability of sodium carboxy MBTH, 38 mg. of either MBTH.HCl or NaCMBTH was added to 1.2 mL water to dissolve. Then, 0.75 mL of this solution was added to 21 mg Hydrisel SX 660, a commercial surfactant and […] 0.1% ACP polymer (ISP Technologies), prepared in 70% isopropanol solution. Each solution was coated onto a 4-inch wide polyester fabric in a thin layer and dried at 40° C. for fifteen minutes. The coated fabric was sealed in an airtight foil bag and stored at 4° C.
Small samples (2 cm×5 cm) of each coated fabric were placed into a 120° C. oven and removed at appropriate intervals. The heat-stressed fabric samples were assayed spectrophotometrically.
The fabric samples were placed into a tared test tube and weighed. Ten mL of 20 mM phosphate buffer, pH 7.0, was added. The tubes were capped and agitated for ten minutes at room temperature. Absorbance at 310 nm was read for each sample and the values were compared against a standard curve.

Data set [4] can be described thus: Solubility Comparison in water. The class given is physicochemical. To be noted: for Water added: to dissolve 100 mg completely. As to the method: as §1
For data set [5] the following is noted: cited from earlier work.

Counter-ions that a name gives are not always drawn. Like-named read-outs stand apart in the source and are kept apart here. A value given as a limit tells only on which side of the number the result lay.

Broadly, the solubility is the dissolved amount per volume that the medium holds. With `Cn1c(=NN)sc2cc(C(=O)O)ccc21` [NaCMBTH, 3-methylbenzothiazolone-2-hydrazone-6-carboxylic acid, sodium salt], in data set [1], the “Absorbance at 600 nm” value amounted to 0.2115 absorbance units. Besides, the solubility stood at 174 mg/mL in data set [2] and 87 mg/mL in data set [4]. For the same compound, the Water added came out at 575 µL in data set [2] and 1150 µL in data set [4]. The Density stood at 75.4 mg/m^2 in data set [3] (time 0), 50.4 mg/m^2 in data set [3] (time 4 (hours)), 51.2 mg/m^2 in data set [3] (time 6 (hours)) and 50.3 mg/m^2 in data set [3] (time 23 (hours)). In addition, the heat stability entry was “retains most of its activity” in data set [3] (after 23 hours at 120° C.) and “still viable” in data set [3] (after six hours at 120° C.).

For the compound `Cn1c(=NNS(=O)(=O)O)sc2ccccc21` [3-methyl-2-sulfonyl-benzothiazolononhydrazone], the “solubility in water compared with MBTH” value in data set [5] (U.S. Pat. No. 4,101,381) is reported as “much poorer solubility in water than MBTH”.

As to `Cn1c(=NN)sc2ccccc21` [MBTH.HCl, 3-methyl benzothiazolone-2-hydrazone HCL], the “water solubility of the dye formed in the color reactions” value in data set [5] was “relatively poor water solubility”. In addition, the heat stability entry in data set [5] (dry form, 60° C., as noted in U.S. Pat. No. 4,101,381) is listed as “insufficiently stable”; in data set [3] (after only two hours at 120° C.), “effectively decomposed”. Also, in data set [5] (pH, absence of hydrogen peroxide), the “usable pH (autoxidative color reaction otherwise)” value is listed as “below 7”. In addition, the “Absorbance at 600 nm” value in data set [1] amounted to 0.1513 absorbance units. The values for the solubility in data set [2] and in data set [4] were < 10 mg/mL and 34 mg/mL, respectively. Also, the Water added in data set [2] was > 9600 µL; in data set [4], 2900 µL. Moreover, the Density in data set [3] (time 0) came out at 114.7 mg/m^2; in data set [3] (time 4 (hours)), 10.2 mg/m^2.
